Assay results as given in patent US7759345B2, “Antitumoral derivatives of ET-743” (priority 2001, dated 2010).
Where two headings read alike, the source gives them in different places.

Key:
HT-29 = assay: Inhibition of cell growth by counting cells, HT-29; type: cell-based, human; settings: three days of incubation, read-out: IC50 (molar) HT-29
Description: (§1) 1°.—Inhibition of Cell Growth by Counting Cells.
(§2) This form of the assay employs 24 well multidishes of 16 mm diameter (Bergeron, 1984; Schroeder, 1981). The tumor cell lines employed are: P-388 (ATCC CCL 46), suspension culture of a lymphoid neoplasm from a DBA/2 mouse; A-549 (ATCC CCL 185), monolayer culture of a human lung carcinoma; HT-29 (ATCC HTB-38), monolayer culture of a human colon carcinoma; MEL-28 (ATCC HTB-72), monolayer culture of a human melanoma and DU-145 (ATCC HTB-81), monolayer culture of a human prostate carcinoma.
(§3) Cells were maintained, in logarithmic phase of growth in Eagle's Minimum Essential Medium, with Earle's Balanced Salts, with non-essential amino acids, with 2.0 mM L-Glutamine, without sodium bicarbonate (EMEM/neaa), supplemented with 10% Fetal Calf Serum (FCS), 10^−2 M. sodium bicarbonate and 0.1 U/l penicillin G+0.1 g/l streptomycin sulfate. For the experiments, cells are harvested from subconfluent cultures using trypsin and resuspended in fresh medium before plating.
(§4) A-549, HT-29, MEL-28 and DU-145 cells were seeded into 16 mm diameter wells at 1×10^4 cells per well in 1 ml aliquots of EMEM 5% FCS containing different concentrations of the sample to be tested. A separate set of cultures without drug was seeded as control of growth, to ensure that cells remained in exponential phase of growth. All determinations are carrying out in duplicate. After three days of incubation at 37° C., 5% CO2 in a 98% humid atmosphere cells were stained with 0.1% crystal violet. An approximately IC50 was determined by comparing the growth in wells with drug to the growth in wells control.
(§5) For quantifying the activity, after the incubation time, cells are trypsinized and counted in a Coulter Counter ZM. All counts (net cells per well), represent the average of duplicate wells. % G, percent of growth relative to cultures without drug. The results of these assays are used to generate dose-response curves from which more precise IC50 values are determined (sample concentration which produces 50% cell growth inhibition).
(§6) Obtained results may predict the usefulness of a certain drug as a potential cancer treatment. For this technique, compounds which show IC50 values smaller than 1 μg/ml are selected to continue with further studies. IC50's data allow to predict that not only could a drug be cystostatic, but also it could have a potential in terms of tumor reduction.

A-549 = assay: Inhibition of cell growth by counting cells, A-549; type: cell-based, human; settings: three days of incubation, read-out: IC50 (molar) A-549
Description: as §1, §2, §3, §4, §5, §6

Row | SMILES | IC50 (HT-29; Homo sapiens, HT-29, 72 h) [nM] | IC50 (A-549; Homo sapiens, A549, 72 h) [nM] | IC50 (HT-29) [nM] | IC50 (A-549) [nM]
1 | COc1cc2c(cc1OC(=O)OC(C)(C)C)CCN[C@]21CS[C@@H]2c3c(OC(=O)CCCl)c(C)c4c(c3[C@H](COC1=O)N1C2[C@H]2c3c(cc(C)c(OC)c3O)C[C@@H]([C@@H]1C#N)N2C)OCO4 (some centres unmarked) [Compound 116] | 0.109 | 0.109 |  | 
2 | COc1cc2c(cc1OC(=O)OC(C)(C)C)CCN[C@]21CS[C@@H]2c3c(OC)c(C)c4c(c3[C@H](COC1=O)N1C2[C@H]2c3c(cc(C)c(OC)c3O)C[C@@H]([C@@H]1C#N)N2C)OCO4 (some centres unmarked) [Compound 126] |  |  | 0.119 | 0.119
3 | COc1cc2c(cc1OC(=O)OC(C)(C)C)CCN[C@]21CS[C@@H]2c3c(OC)c(C)c4c(c3[C@H](COC1=O)N1C2[C@H]2c3c(cc(C)c(OC)c3OC)C[C@@H]([C@@H]1C#N)N2C)OCO4 (some centres unmarked) [Compound 127] |  |  | 0.117 | 0.117
4 | CCOc1c(C)c2c(c3c1[C@H]1SC[C@]4(NCCc5cc(OC(=O)OC(C)(C)C)c(OC)cc54)C(=O)OC[C@@H]3N3C1[C@H]1c4c(cc(C)c(OC)c4O)C[C@@H]([C@@H]3C#N)N1C)OCO2 (some centres unmarked) [Compound 128] | 1.17 | 1.17 |  | 
5 | CCOc1c(C)c2c(c3c1[C@H]1SC[C@]4(NCCc5cc(OC(=O)OC(C)(C)C)c(OC)cc54)C(=O)OC[C@@H]3N3C1[C@H]1c4c(cc(C)c(OC)c4OCC)C[C@@H]([C@@H]3C#N)N1C)OCO2 (some centres unmarked) [Compound 129] | 11.3 | 11.3 |  | 
6 | CCCOc1c(C)c2c(c3c1[C@H]1SC[C@]4(NCCc5cc(OC(=O)OC(C)(C)C)c(OC)cc54)C(=O)OC[C@@H]3N3C1[C@H]1c4c(cc(C)c(OC)c4O)C[C@@H]([C@@H]3C#N)N1C)OCO2 (some centres unmarked) [Compound 130] | 1.15 | 1.15 |  | 
7 | CCCOc1c(C)c2c(c3c1[C@H]1SC[C@]4(NCCc5cc(OC(=O)OC(C)(C)C)c(OC)cc54)C(=O)OC[C@@H]3N3C1[C@H]1c4c(cc(C)c(OC)c4OCCC)C[C@@H]([C@@H]3C#N)N1C)OCO2 (some centres unmarked) [Compound 131] | 110 | 110 |  | 
8 | C=CCOc1c(C)c2c(c3c1[C@H]1SC[C@]4(NCCc5cc(OC(=O)OC(C)(C)C)c(OC)cc54)C(=O)OC[C@@H]3N3C1[C@H]1c4c(cc(C)c(OC)c4O)C[C@@H]([C@@H]3C#N)N1C)OCO2 (some centres unmarked) [Compound 132] | 1.15 | 1.15 |  | 
9 | C=CCOc1c(C)c2c(c3c1[C@H]1SC[C@]4(NCCc5cc(OC(=O)OC(C)(C)C)c(OC)cc54)C(=O)OC[C@@H]3N3C1[C@H]1c4c(cc(C)c(OC)c4OCC=C)C[C@@H]([C@@H]3C#N)N1C)OCO2 (some centres unmarked) [Compound 133] | 110 | 110 |  | 
10 | COc1cc2c(cc1O)CCN[C@]21CS[C@@H]2c3c(OC(=O)/C=C/c4ccccc4)c(C)c4c(c3[C@H](COC1=O)N1C2[C@H]2c3c(cc(C)c(OC)c3OC(=O)/C=C/c3ccccc3)C[C@@H]([C@@H]1C#N)N2C)OCO4 (some centres unmarked) [Compound 138] | 1.01 | 1.01 |  | 
11 | CCCC(=O)Oc1c(C)c2c(c3c1[C@H]1SC[C@]4(NCCc5cc(O)c(OC)cc54)C(=O)OC[C@@H]3N3C1[C@H]1c4c(cc(C)c(OC)c4O)C[C@@H]([C@@H]3C#N)N1C)OCO2 (some centres unmarked) [Compound 139] | 1.25 | 1.25 |  | 
12 | CCCC(=O)Oc1c(C)c2c(c3c1[C@H]1SC[C@]4(NCCc5cc(O)c(OC)cc54)C(=O)OC[C@@H]3N3C1[C@H]1c4c(cc(C)c(OC)c4OC(=O)CCC)C[C@@H]([C@@H]3C#N)N1C)OCO2 (some centres unmarked) [Compound 140] | 1.15 | 1.15 |  | 
13 | C=CCOC(=O)Oc1c(C)c2c(c3c1[C@H]1SC[C@]4(NCCc5cc(O)c(OC)cc54)C(=O)OC[C@@H]3N3C1[C@H]1c4c(cc(C)c(OC)c4O)C[C@@H]([C@@H]3C#N)N1C)OCO2 (some centres unmarked) [Compound 141] |  |  | 0.123 | 0.123
14 | COc1cc2c(cc1O)CCN[C@]21CS[C@@H]2c3c(OC(=O)CCCl)c(C)c4c(c3[C@H](COC1=O)N1C2[C@H]2c3c(cc(C)c(OC)c3O)C[C@@H]([C@@H]1C#N)N2C)OCO4 (some centres unmarked) [Compound 142] | 1.22 | 1.22 |  | 
15 | CCCCCCCC(=O)Oc1c(C)c2c(c3c1[C@H]1SC[C@]4(NCCc5cc(O)c(OC)cc54)C(=O)OC[C@@H]3N3C1[C@H]1c4c(cc(C)c(OC)c4OC(=O)CCCCCCC)C[C@@H]([C@@H]3C#N)N1C)OCO2 (some centres unmarked) [Compound 145] | 102 | 102 |  | 
16 | COc1cc2c(cc1O)CCN[C@]21CS[C@@H]2c3c(OC)c(C)c4c(c3[C@H](COC1=O)N1C2[C@H]2c3c(cc(C)c(OC)c3O)C[C@@H]([C@@H]1C#N)N2C)OCO4 (some centres unmarked) [Compound 149] | 0.135 | 0.135 |  | 

Row | SMILES | IC50 (HT-29; Homo sapiens, HT-29, 72 h) [nM] | IC50 (A-549; Homo sapiens, A549, 72 h) [nM] | IC50 (HT-29) [nM] | IC50 (A-549) [nM]
17 | COc1cc2c(cc1O)CCN[C@]21CS[C@@H]2c3c(OC)c(C)c4c(c3[C@H](COC1=O)N1C2[C@H]2c3c(cc(C)c(OC)c3OC)C[C@@H]([C@@H]1C#N)N2C)OCO4 (some centres unmarked) [Compound 150] | 1.32 | 1.32 |  | 
18 | CCOc1c(C)c2c(c3c1[C@H]1SC[C@]4(NCCc5cc(O)c(OC)cc54)C(=O)OC[C@@H]3N3C1[C@H]1c4c(cc(C)c(OC)c4O)C[C@@H]([C@@H]3C#N)N1C)OCO2 (some centres unmarked) [Compound 151] | 0.132 | 0.132 |  | 
19 | CCOc1c(C)c2c(c3c1[C@H]1SC[C@]4(NCCc5cc(O)c(OC)cc54)C(=O)OC[C@@H]3N3C1[C@H]1c4c(cc(C)c(OC)c4OCC)C[C@@H]([C@@H]3C#N)N1C)OCO2 (some centres unmarked) [Compound 152] | 12.8 | 12.8 |  | 
20 | CCCOc1c(C)c2c(c3c1[C@H]1SC[C@]4(NCCc5cc(O)c(OC)cc54)C(=O)OC[C@@H]3N3C1[C@H]1c4c(cc(C)c(OC)c4O)C[C@@H]([C@@H]3C#N)N1C)OCO2 (some centres unmarked) [Compound 153] |  |  | 0.13 | 0.13
21 | C=CCOc1c(C)c2c(c3c1[C@H]1SC[C@]4(NCCc5cc(O)c(OC)cc54)C(=O)OC[C@@H]3N3C1[C@H]1c4c(cc(C)c(OC)c4O)C[C@@H]([C@@H]3C#N)N1C)OCO2 (some centres unmarked) [Compound 155] | 1.3 | 1.3 |  | 
22 | C=CCOc1c(C)c2c(c3c1[C@H]1SC[C@]4(NCCc5cc(O)c(OC)cc54)C(=O)OC[C@@H]3N3C1[C@H]1c4c(cc(C)c(OC)c4OCC=C)C[C@@H]([C@@H]3C#N)N1C)OCO2 (some centres unmarked) [Compound 156] | 12.4 | 12.4 |  | 
23 | COc1cc2c(cc1O)CCN[C@]21CS[C@@H]2c3c(OCc4ccccc4)c(C)c4c(c3[C@H](COC1=O)N1C2[C@H]2c3c(cc(C)c(OC)c3O)C[C@@H]([C@@H]1C#N)N2C)OCO4 (some centres unmarked) [Compound 157] | 0.122 | 0.122 |  | 
24 | COc1cc2c(cc1O)CCN[C@]21CS[C@@H]2c3c(OCc4ccccc4)c(C)c4c(c3[C@H](COC1=O)N1C2[C@H]2c3c(cc(C)c(OC)c3OCc3ccccc3)C[C@@H]([C@@H]1C#N)N2C)OCO4 (some centres unmarked) [Compound 158] | 1.1 | 1.1 |  | 
25 | COc1cc2c(cc1O)CCN[C@]21CS[C@@H]2c3c(OC(=O)C(F)(F)F)c(C)c4c(c3[C@H](COC1=O)N1C2[C@H]2c3c(cc(C)c(OC)c3OC(=O)C(F)(F)F)C[C@@H]([C@@H]1C#N)N2C)OCO4 (some centres unmarked) [Compound 160] | 1.09 | 1.09 |  | 
26 | COc1cc2c(cc1O)CCN[C@]21CS[C@@H]2c3c(OC(=O)/C=C/c4ccccc4)c(C)c4c(c3[C@H](COC1=O)N1C2[C@H]2c3c(cc(C)c(OC)c3OC(=O)/C=C/c3ccccc3)C[C@@H]([C@@H]1O)N2C)OCO4 (some centres unmarked) [Compound 162] | 5.1 | 5.1 |  | 
27 | CCCC(=O)Oc1c(C)c2c(c3c1[C@H]1SC[C@]4(NCCc5cc(O)c(OC)cc54)C(=O)OC[C@@H]3N3C1[C@H]1c4c(cc(C)c(OC)c4OC(=O)CCC)C[C@@H]([C@@H]3O)N1C)OCO2 (some centres unmarked) [Compound 164] | 11.6 | 11.6 |  | 
28 | CCCCCCCC(=O)Oc1c(C)c2c(c3c1[C@H]1SC[C@]4(NCCc5cc(O)c(OC)cc54)C(=O)OC[C@@H]3N3C1[C@H]1c4c(cc(C)c(OC)c4OC(=O)CCCCCCC)C[C@@H]([C@@H]3O)N1C)OCO2 (some centres unmarked) [Compound 169] | 1.03 | 1.03 |  | 
29 | CCOc1c(C)c2c(c3c1[C@H]1SC[C@]4(NCCc5cc(O)c(OC)cc54)C(=O)OC[C@@H]3N3C1[C@H]1c4c(cc(C)c(OC)c4O)C[C@@H]([C@@H]3O)N1C)OCO2 (some centres unmarked) [Compound 177] | 0.134 | 0.134 |  | 
30 | CCCOc1c(C)c2c(c3c1[C@H]1SC[C@]4(NCCc5cc(O)c(OC)cc54)C(=O)OC[C@@H]3N3C1[C@H]1c4c(cc(C)c(OC)c4O)C[C@@H]([C@@H]3O)N1C)OCO2 (some centres unmarked) [Compound 178] | 1.31 | 1.31 |  | 
31 | C=CCOc1c(C)c2c(c3c1[C@H]1SC[C@]4(NCCc5cc(O)c(OC)cc54)C(=O)OC[C@@H]3N3C1[C@H]1c4c(cc(C)c(OC)c4OCC=C)C[C@@H]([C@@H]3O)N1C)OCO2 (some centres unmarked) [Compound 179] | 12.5 | 12.5 |  | 
